Among the data in a melting point compilation (Tetko et al.) are melting point values, retold here.

As usually defined, the melting point is the temperature, or range, at which the solid turns liquid.

`C=C(C)C1Cc2c(cc(O)c3c2OC2COc4cc(OC)c(OC)cc4C2C3=O)O1` (centres undefined): the melting point turned out to be 195 °C.

Take `O=C(O)c1cc(-c2ccccc2)c(C(F)(F)F)s1`: the melting point was in the range of 130 to 132 °C.

Consider `N=C1c2ccccc2C(=O)N1c1n[nH]c2ncccc12`, for which the melting point is 252 to 255 °C.

For `COc1ccc(C(=O)C2=NOC3C(=O)N(c4cc(Cl)ccc4Cl)C(=O)C23)cc1` (centres undefined), the melting point stood at 147 °C.

The molecule `CC(C)NCC(O)c1ccc(O)c(O)c1` (centres undefined) returned a melting point of 170 °C.

`Clc1ccc(-c2nc3c4ccccc4ccn3n2)cc1` returned a melting point of 238 °C.

`C=C(C)C(=O)OCCOC(=O)c1cc([N+](=O)[O-])cc([N+](=O)[O-])c1` came in with a melting point of 71 °C.

In the case of `Cc1ccc(C=O)c(Br)c1`, the melting point was determined as 35 °C.

In turn, `Brc1cc2c(cc1Br)Oc1ccccc1O2` came in with a melting point of 158 °C.

For `CC(=O)Nc1cc(Cl)c(Cl)cc1[N+](=O)[O-]`, the melting point fell in the range of 126 to 128 °C.

In turn, `NS(=O)(=O)c1ccc(S(=O)(=O)CCO)cc1` showed a melting point of 165 °C.

`COc1ccc(C(C)=O)cc1[N+](=O)[O-]` showed a melting point of 98 °C.

`O=[N+]([O-])c1ncccc1Cl` registered a melting point of 91 °C.

In turn, `COc1ccc(N/N=C(\C#N)c2nc(-c3ccccc3)cs2)cc1` registered a melting point of 150 °C.

`CC(=O)Oc1ccc(OC(C)=O)c(C(C)(C)C)c1` displayed a melting point of 64.5 to 65.5 °C.

In turn, `c1ccc(-c2oc(-c3ccccc3)c3ccccc23)cc1` gave a melting point of 135 °C.

The molecule `CC(C)[C@@H](NC(=O)OC(C)(C)C)C(=O)O` registered a melting point of 164 to 165 °C.

In turn, `O=C(O)C(Cl)(Cl)CCl` registered a melting point of 65.5 °C.

In turn, `CC(C)(C)c1ccc(-c2nn[nH]n2)cc1` gave a melting point of 193 to 195 °C.

In the case of `CC1C(=CC(=O)OCCN(C)C)CCC2C1C(=O)CC1C(C)(C)C(O)CCC21C` (centres undefined), the melting point came to 142 °C.

The molecule `CSc1nc(N)nc(-c2ccncc2)n1` gave a melting point of 234 to 237 °C.

For `Nc1c(C=O)ccc2c1C(=O)c1ccccc1C2=O`, the melting point was in the range of 228 to 234 °C.

The molecule `OC[C@H]1OC(Nc2ccccc2)C[C@@H]1O` (some centres undefined) came in with a melting point of 151 °C.

In turn, `Cc1cc(Br)cc(Br)c1O` showed a melting point of 58 °C.

The molecule `Cc1c(C(=O)O)cc(-c2ccccc2)n1-c1ccccc1` displayed a melting point of 226 to 227 °C.

As to `CC(C)CCC[C@@H](C)[C@H]1CC[C@H]2C3=CC=C4C[C@@H](O)CC[C@]4(C)[C@H]3CC[C@]12C`, the melting point worked out at 150 °C.

The molecule `CSc1nc(Cl)c(-c2ccccc2)c(Cl)n1` displayed a melting point of 114 °C.

On to `O=C(O)c1ccc2[nH]cnc2c1`, for which the melting point stood at 300 °C.

Consider `O=[N+]([O-])N1CCCCC1`, for which the melting point was -5.5 °C.

Regarding `CC12CCC(C(Br)=C(Br)C1=O)C2(C)C` (centres undefined), the melting point turned out to be 103 °C.

As to `Nc1cc(F)c(C(F)(F)F)c(F)c1`, the melting point amounted to 66 °C.

Take `CCOC(C)OCC`: the melting point is -100 °C.

In turn, `O=C(Oc1ccccc1)c1cc2ccccc2cc1O` had a melting point of 128 to 133 °C.

Regarding `CC(=O)c1cccc(O)c1`, the melting point amounted to 96 °C.

Regarding `CCC(=O)c1c(O)cc(O)cc1O`, the melting point came out at 176 °C.

`NC(=S)c1ccc2nonc2c1` returned a melting point of 132 to 135 °C.

For `Cc1ccc(N)c(C(=O)NN)c1`, the melting point was in the range of 133 to 134 °C.

Take `COC(=O)C1(C(=O)OC)C=C(OC)c2ccccc21`: the melting point lay within 114 to 115 °C.

`CC1=NN(c2ccccc2)C(=O)C1Cc1ccccc1O` (centres undefined) registered a melting point of 140 °C.

As to `Cc1ccc(C(c2ccc(C)o2)c2cc(Cl)ccc2O)o1`, the melting point was found to be 85 °C.

For `CC1(C)OC(=O)C(=NNc2ccc(O)cc2)C(=O)O1`, the melting point amounted to 238 °C.

Molecule `Cc1[nH]nc(Cl)c1[N+](=O)[O-]` displayed a melting point of 111 °C.

For the molecule `CC(C)c1ccc(C(C)C)cc1`, the melting point is -17 °C.

In turn, `Nc1ncn[nH]1` gave a melting point of 159 °C.

For the molecule `Cc1noc(-c2ccc(C=O)cc2)n1`, the melting point was 133 to 135 °C.

`Nc1ccc(-c2ccc(N)cc2Cl)c(Cl)c1` gave a melting point of 165 °C.

Regarding `COc1cc(NCc2ccc3nc(N)nc(N)c3c2C)cc(OC)c1OC`, the melting point is 216 °C.

In turn, `COc1cc2c(cc1O)CCNC2` yielded a melting point of 222 °C.

For `CC(=O)Oc1c(-c2ccccc2)n(C(C)=O)c2cc([N+](=O)[O-])ccc12`, the melting point worked out at 178 °C.

As for `O=C(O)C=Cc1cc([N+](=O)[O-])ccc1Cl`, the melting point was in the range of 218 to 222 °C.

Molecule `CCCCCC(=NO)C(C)=O` registered a melting point of 59 °C.

For `C[Si](C)(C)N(c1ccccc1)[Si](C)(C)C`, the melting point was 16.5 °C.

In turn, `O=C(C=NO)Nc1cc(Cl)ccc1Cl` came in with a melting point of 198 to 201 °C.

The molecule `CC1=Nc2ccccc2C1(C)C#N` (centres undefined) yielded a melting point of 73 °C.

On to `CC#CC(C)CC` (centres undefined), for which the melting point was -108 °C.

With `O=C(O)c1cc(I)ccc1O`, the melting point fell in the range of 196 to 201 °C.

On to `OCc1cccc2cccc(Br)c12`, for which the melting point was 89 to 90 °C.

In turn, `NC(=O)CCCCC(N)=O` returned a melting point of 226 °C.

`CO/C(C)=C(\C#N)c1ccccc1[N+](=O)[O-]` gave a melting point of 66 to 69 °C.

On to `CC1=NN(c2ccc(C)cc2)C(=O)C1`, for which the melting point worked out at 138 °C.

For `O=C1c2ccccc2-c2ccc(O)cc21`, the melting point was 205 °C.

Turning to `O=c1cc(-c2ccccc2)oc2cccc(O)c12`, the melting point turned out to be 158 °C.

In turn, `O=C(O)C=Cc1ccc(OC(F)(F)F)cc1` yielded a melting point of 178 to 179 °C.

Take `CC1=C(C)C(C(C)C)C=C1Cc1ccccc1` (centres undefined): the melting point was determined as 54 °C.

Turning to `CC(C)Oc1ccccc1`, the melting point was -33 °C.

The molecule `COc1ccc(CCN)cc1OC` returned a melting point of 12 to 15 °C.

In turn, `O=C(Nc1cccc2cc(OC(=O)c3ccccc3)ccc12)c1ccccc1` had a melting point of 222 to 223 °C.

`Clc1cccc(CBr)c1Cl` returned a melting point of 29 to 32 °C.

Molecule `O=C(O)c1cccc(-c2cccnc2)c1` returned a melting point of 202 to 206 °C.

As to `Cc1cc(C(=O)CC#N)c(C(F)(F)F)o1`, the melting point lay in the range of 75 to 77 °C.

Molecule `CCCCCCC(C)OC(=O)COc1nc(F)c(Cl)c(N)c1Cl` (centres undefined) gave a melting point of 59 °C.

Molecule `NNc1nc(-c2ccccc2)c2c(N)n[nH]c2n1` returned a melting point of 241 to 244 °C.

With `OC(c1ccc(F)cc1)c1ccc(F)cc1`, the melting point was found to be 47 °C.

As for `CC1(C)OC2OC(CO)C3OC(C)(C)OC3C2O1` (centres undefined), the melting point was 120 to 122 °C.

Regarding `COC(C)=O`, the melting point is -98 °C.

Molecule `CC(C)=C/C=C/C=N/Nc1ccc([N+](=O)[O-])cc1[N+](=O)[O-]` had a melting point of 205 to 206 °C.

`Cc1cc(Cl)ccc1Oc1ncccc1[N+](=O)[O-]` showed a melting point of 89 to 91 °C.

On to `CCOC1OC(C(N)=O)=CC(C)C1Br` (centres undefined), for which the melting point is 131 °C.

In turn, `Cc1nn(C)c(Cl)c1I` returned a melting point of 64 to 65 °C.
